Values joined by “and” are separate entries in the source; they are usually repeats but may differ in a detail not shown here. Equal values may be shown once. “Also recorded” adds a separate entry of the source. Read-outs that look alike come from different tables or passages of the source.
Key:
EhAGCK2 = test: ADP-Glo kinase assay with peptide substrates / ATP, EhAGCK2 WT; format: biochemical, Entamoeba histolytica; conditions: for ATP Vmax / Km: mean ± SE, n = 6
Description: (§1) The phosphorylation activity of kinases was measured using the ADP-Glo kinase assay kit according to the manufacturer’s protocol with few modifications (Promega, Madison, WI, Catalogue number V6930). Assays were performed in a Corning 384-well low-volume white round bottom polystyrene NBS microplate with a total volume of 32 μl in the ratio of 1:1:2, corresponding to the kinase reaction, ADP-Glo reagent, and detection reagent, respectively. The kinase reaction was performed in an 8 μl volume containing 4 μl of purified protein kinases, 2 μl of peptide substrate, and 2 μl of ATP (Promega, Madison, WI). The working concentration of all the kinase reaction components was prepared in the standard kinase assay buffer (40 mM Tris-Cl pH 7.5, 20 mM MgCl2, 2 mM DTT). Along with other controls, only buffer-negative controls without protein kinase, substrate, and ATP were included in the kinase assay. Kinase assay reactions in each well were started immediately by adding ATP. The reactions were allowed to continue for 1 h at 30°C in the incubator chamber without shaking. The kinase assay was quenched by adding 8 μl of ADP-Glo reagent in each well before adding ADP-Glo reagent. The reaction plate was incubated for 5 min at room temperature. Termination reactions were allowed to proceed for 40 min at room temperature. ADP-Glo reagent, in addition to quenching the reaction, scavenges the unconsumed ATP from the reaction. In the final step of the ADP-Glo kinase assay, 16 μl of kinase detection reagent was added to each well and incubated for 40 min to simultaneously convert ADP to ATP and allow the newly synthesised ATP to be measured using a luciferase/luciferin reaction. The luminescent signal generated was measured using a SpectraMax i3x Multi-Mode Microplate Reader (Molecular Devices), and it was proportional to the ADP concentration produced and correlated with the kinase activity.
(§2) Standard curves were constructed by plotting the saturating relative light units (RLU) for each sample against the concentration of the peptide substrate or ATP in the reaction, following the previously reported method. The slope of the standard curve was determined and used to convert the reaction rate velocities. Velocities were expressed in μM/min by calculating the rate of reaction (DY/DX) for each reaction, where DY represented the difference between the luminescence measurements at the beginning and end of the reaction, and DX denoted the duration of the reaction (total time of reaction: 60 min). The converted velocities were plotted against the substrate concentration, and the data were fitted to the Michaelis-Menten equation to determine Km and Vmax.
(§3) The kinase assay data presented here are the mean ± standard error (SE) of n≥3 of three independent experiments. The Km and Vmax were determined from a direct, nonlinear fit of [V] versus [S] plots using the Michaelis-Menten equation: V=Vmax[S]/Km+[S] using the GraphPad Prism 9.0 software package (GraphPad Software Inc., CA, USA). Additionally, the Microscale Thermophoresis (MST) experiments were conducted using the Monolith NT.11.5 instrument, with triplicate runs. Statistical comparisons were made using Student’s t-test. Differences in mean values were considered significant at *p-value≤0.05, **p-value≤0.01, ***p-value≤0.001, ****p-value≤0.0001.

EhAGCK1 = test: ADP-Glo kinase assay with peptide substrates / ATP, EhAGCK1 WT; format: biochemical, Entamoeba histolytica; conditions: for phosphorylation by EhAGCK1 WT (words): 1 hr
Description: as §1, §2, §3

HsGSK3 peptide = test: ADP-Glo kinase activity of kinase variants with human GSK3 peptide in MgCl2 and MnCl2 buffers; format: biochemical; conditions: for kinase activity with HsGSK3 peptide in Mg2+ / without Mn2+ (words): kinase 0-80 μM
Description: as §1, §3

autophosphorylation = test: ATP biotinylation kinase assay (autophosphorylation, SA-HRPO western blot); format: biochemical, Entamoeba histolytica; conditions: 4 μM kinase (EhPDK1 2 μM), 20 μM biotin-labelled ATP, 40 mM Tris-Cl pH 7.8, 10 mM MgCl2, 2 mM DTT, 30°C, 1 h
Description: ATP biotinylation assays were performed in the presence of 4 μM of EhAGCK1 (WT, T275D, and KDD1) and EhAGCK2 (WT, T274D, and KDD2) along with 2 μM of wild-type EhPDK1 in the presence of activation buffer 40 mM Tris-Cl pH 7.8, 10 mM MgCl2, and 2 mM DTT and incubated at 30°C for 1 h. The reaction was triggered by adding 20 μM biotin-labelled ATP (Catalogue NU-970-BIO, Jena Bioscience). 20 μl of the reaction was collected at the indicated time point and quenched by the addition of 4x SDS-loading dye. After gel electrophoresis, phosphorylated proteins were visualized by immunoblotting using HRPO-conjugated streptavidin (Invitrogen).
ATP biotinylated protein samples were separated by SDS-PAGE and then electro-transferred to PVDF membrane (Pall life sciences). The membrane was blocked overnight by 5% BSA (G-Biosciences) in TBS-T (TBS with 0.1% Tween 20) and stained with Ponceau S. This blocking process was done overnight at 4°C. The membrane was then incubated with 1:1000 dilution of HRPO-conjugated streptavidin (Invitrogen) at room temperature. Following antibody incubation, the blots were carefully cleaned with TBS-T. Band detection was carried out with a Millipore ECL kit.

[1] = S3 Table, ADP-Glo, Michaelis-Menten fit at various substrate concentrations, 20 μM kinase, 250 μM ATP, read-out: Peptide Km in the presence of EhAGCK2
[2] = S3 Table, ADP-Glo, Michaelis-Menten fit at various substrate concentrations, 20 μM kinase, 250 μM ATP, mean ± SE, n = 6, read-out: Peptide Km in the presence of EhAGCK1

Nc1ncnc2c1ncn2[C@@H]1O[C@H](COP(=O)(O)OP(=O)(O)OP(=O)(O)O)[C@@H](O)[C@H]1O [ATP, reference compound]
ATP Vmax (EhAGCK2; EhAGCK2 WT 20 μM, 50 μM EhCoactosin peptide substrate, ATP 0-1000 μM): 444.4 ± 18.5 µM/min | Km (EhAGCK2; EhAGCK2 WT 20 μM, 50 μM EhCoactosin peptide substrate, ATP 0-1000 μM, read-out: ATP Km): 92.1 ± 16 µM | ATP Vmax (EhAGCK2; EhAGCK2 WT 20 μM, 50 μM HsGSK3 peptide substrate, ATP 0-1000 μM): 271.4 ± 30.5 µM/min | Km (EhAGCK2; EhAGCK2 WT 20 μM, 50 μM HsGSK3 peptide substrate, ATP 0-1000 μM, read-out: ATP Km): 292 µM and 291 µM | Km (EhAGCK1; EhAGCK1 WT 20 μM, 50 μM EhRhoGEF peptide substrate, ATP 0-1000 μM, mean ± SE, n = 6, read-out: ATP Km): 125 ± 16 µM | ATP Vmax (EhAGCK1; EhAGCK1 WT 20 μM, 50 μM HsGSK3 peptide substrate, ATP 0-1000 μM, mean ± SE, n = 6): 260.7 ± 9.4 µM/min | Km (EhAGCK1; EhAGCK1 WT 20 μM, 50 μM HsGSK3 peptide substrate, ATP 0-1000 μM, mean ± SE, n = 6, read-out: ATP Km): 242 ± 22.2 µM

ELDSDEEQKELER [Filamin-A interacting protein]
Km (EhAGCK2; [1]): 0.147 µM | phosphorylation by EhAGCK1 WT (words) (EhAGCK1; 20 μM EhAGCK1 WT, 250 μM ATP): recognized as substrates by EhAGCK1 WT | phosphorylation by EhAGCK1 WT (words) (EhAGCK1; 20 μM EhAGCK1 WT, 250 μM ATP, listed as Filamin-A-interacting protein): specifically phosphorylated | Km (EhAGCK1; ADP-Glo luminescence, 20 μM EhAGCK1 WT, 250 μM ATP, peptide 0-200 μM, 30°C, 60 min, standard buffer 40 mM Tris-Cl pH 7.5, 20 mM MgCl2, 2 mM DTT, Michaelis-Menten fit, mean ± SE, n = 6, read-out: Km (peptide substrate)): 3.28 ± 1.19 µM | Km (EhAGCK1; [2]): 3.28 ± 1.19 µM

KSPTIDEIK [Hypothetical protein, peptide 133-141 of E. histolytica Hypothetical protein (EHI_025430)]
Km (EhAGCK2; [1]): 0.197 ± 0.08 µM | phosphorylation by EhAGCK1 WT (words) (EhAGCK1; 20 μM EhAGCK1 WT, 250 μM ATP): notable phosphorylation by EhAGCK1 | Km (EhAGCK1; [2]): 2.56 ± 0.99 µM

KTITPVVEDPCER [HEAT repeat domain-containing protein, peptide 661-673 of E. histolytica HEAT repeat domain-containing protein (EHI_050150)]
Km (EhAGCK2; [1]): 0.262 ± 0.2 µM | phosphorylation by EhAGCK1 WT (words) (EhAGCK1; 20 μM EhAGCK1 WT, 250 μM ATP): notable phosphorylation by EhAGCK1 | Km (EhAGCK1; [2]): 3.62 ± 1.34 µM

MAGIQLADEVTSVYNDF KLSHKYRYIV [Actophorin, peptide 1-27 of E. histolytica Actophorin (EHI_197480)]
Km (EhAGCK2; [1]): 0.258 ± 0.09 µM | Km (EhAGCK1; [2]): 2.83 ± 1.69 µM

RRESVDYTNNK [Unconventional Myosin IB, peptide 754-764 of E. histolytica Unconventional myosin IB (EHI_110810)]
phosphorylation by EhAGCK2 WT (EhAGCK2; 20 μM EhAGCK2 WT, 250 μM ATP, 1 hr): recognised as substrates by EhAGCK2 WT; also recorded: accepted as substrates by EhAGCK2 WT | Km (EhAGCK2; ADP-Glo luminescence, 20 μM EhAGCK2 WT, 250 μM ATP, peptide 0-200 μM, 30°C, 60 min, standard buffer 40 mM Tris-Cl pH 7.5, 20 mM MgCl2, 2 mM DTT, Michaelis-Menten fit, read-out: Km (peptide substrate)): 1.34 ± 0.57 µM | Km (EhAGCK2; [1]): 1.34 ± 0.57 µM | Km (EhAGCK1; [2]): 3.63 ± 2.58 µM

SALDNGTYSPLLSPTR [RhoGEF-1, peptide 236-251 of E. histolytica RhoGEF-1 (EHI_159500)]
Km (EhAGCK2; [1]): 0.271 ± 0.17 µM | Km (EhAGCK1; [2]): 4.42 ± 2.75 µM

B1: EhAGCK1 WT: recombinant full-length wild-type His-tagged AGC family kinase 1 of E. histolytica (protein)
chain: MEEKTQGWLMKEGGSWKSWKKRYFVLDNDTLYYYKEQDKKTLMGTMNLSLATHITAVDNYHKKYENIIRICTPSRTFHLSAANEEERLAWLTSIICHSEKTNICKPRISSVPVTQKDFDVKCLLGKGAYGKVFLVEMISTHEIFAMKTIEKKQIIEYEEIEHTMSERRILSKLHHPFLVNLYYSFQTPTHLFYIIDYCPGGEFYYYLQKNGKVSEEDAKFYAAQILLAIEHLHSSNIVYRDIKPENILIGADGYLRLTDFGLSKENVTKENTTSTFCGTPEYLAPEVVVGKDYSEPVDWWGFGILIYEMIHGHAPFTSEDIQQLFQKIIHDPVSFPSASYPSADCKECIVMLLEKDPEKRLTDPNRIKSHCWFKGFDWEGLFQKKLSPPFVPVLKDKTDTSNFNEDIINETAKIDEGEVVDSKDYFNDFTYCK
modifications: left off: His tag, end not stated, kept
notes: recombinant full-length wild-type His-tagged AGC family kinase 1 of E. histolytica
kinase activity with HsGSK3 peptide in Mg2+ / without Mn2+ (words) (HsGSK3 peptide; 50 μM HsGSK3 peptide, 250 μM ATP): did not utilize the HsGSK3 peptide as a substrate | kinase activity with HsGSK3 peptide in Mg2+ / without Mn2+ (words) (HsGSK3 peptide; 50 μM HsGSK3 peptide, 250 μM ATP, listed as EhAGCK1): could not accept HsGSK3 peptide as substrate | ion preference for kinase activity (HsGSK3 peptide; MgCl2 versus MnCl2 buffer, HsGSK3 peptide): only active in the presence of MnCl2 buffer; also recorded: maximum kinase activity in the presence of Mn^2+ | increase in kinase activity with HsGSK3 peptide in presence of Mn2+ (HsGSK3 peptide; Mn2+ present, 50 μM HsGSK3 peptide, 250 μM ATP): 16 fold | Fold change (MgCl2: MnCl2) (HsGSK3 peptide; S1 Table, kinase activity in MgCl2 and MnCl2 buffers, 50 μM HsGSK3 peptide, 250 μM ATP, 60 min, 30°C): 15.67 | autophosphorylation activity (words) (autophosphorylation): exhibited autophosphorylation activity | autophosphorylation activity (words) (autophosphorylation; listed as EhAGCK1): able to accept biotin-ATP as substrate and underwent autophosphorylation

B2: KDD2: kinase-dead domain EhAGCK2 (K147A and D242A) (protein)
chain: MSVKTGWGIKEGGSWKTWKRRMFKLSEGKIEYFKDEGMTKKMGDIELSKVTHVLAVDQYKKRKNLIRIITPSRTYHISVNEESDRDSWVEAIRGMIGDNKEKKTQEEKEENKISMEDFDIITLLGKGAFGKVMLVKYKKEGKIYAMATVEKAQIIDSNEVEHILSEKVVLSQINNPFLVNMHYSFQTPTHLVFILDYCAGGELFSYLQKHPAGLPEVDVKFYAAQIVLALEHMHSTGIIYRAIKPENILFEKDGYLRMTDFGLAKSTKKGTTNTFCGTPEYLAPEVVEGLDYNEYIDWWGLGILIYEMLFTQSPFLAETMEELYENILQREPKYPSTKPITEECMNFINSLLIKEPSKRLTDPDQIKTHPWFNGFNFDDLYKKKLTPPYVPKIQSQTDTSNFDDEITQEEVDLKTGVEVVADNRFFTDFTYVQK
modifications: left off: His tag, end not stated, kept
autophosphorylation activity (words) (autophosphorylation): remain inactive

From PMC11642994, “AGC family kinase of Entamoeba histolytica: Decoding the members biochemically” (PLOS Pathogens, 2024)
